Where a name gives a salt, the structure may show the parent alone. Read-outs that look alike come from different tables or passages of the source.
Tests used:
[1] = tested on: Bacillus subtilis ATCC 6 633; test: MIC, dilution in liquid medium; assay type: cell-based
Description: (§1) The method used was a dilution of a liquid medium where a series of tubes received the same quantity of a sterile nutritive media and increasing doses of the test compounds were placed therein. Then each tube was seeded with a bacterial strain and was incubated for 24 to 48 hours at 37° C. in an oven. The increasing inhibition was determined by transillulumination to determine the minimum inhibiting concentration (MIC in μg/ml) and the results are reported in the following Tables.

Enterobacter cloacae 681 = test: MIC, dilution in liquid medium; assay type: cell-based
Description: as §1

[2] = tested on: Escherichia Coli Resistant Gentamycine, Tobramycine R 55 123 D; test: MIC, dilution in liquid medium; assay type: cell-based; conditions: read-out: MIC
Description: as §1

[3] = tested on: Escherichia Coli Resistant Tetracycline ATCC 11 303; test: MIC, dilution in liquid medium; assay type: cell-based
Description: as §1

[4] = tested on: Escherichia Coli sensitive Tetracycline ATCC 9 637; test: MIC, dilution in liquid medium; assay type: cell-based
Description: as §1

[5] = tested on: Klebsiella pneumoniae 2 536 Resistant Gentamycine; test: MIC, dilution in liquid medium; assay type: cell-based
Description: as §1

[6] = tested on: Klebsiella pneumoniae Exp. 52 145; test: MIC, dilution in liquid medium; assay type: cell-based; conditions: read-out: MIC
Description: as §1

[7] = tested on: Proteus mirabilis (indol-) A 235; test: MIC, dilution in liquid medium; assay type: cell-based
Description: as §1

Providencia Du 48 = test: MIC, dilution in liquid medium; assay type: cell-based
Description: as §1

[8] = tested on: Pseudomonas 8951 Resistant Gentamycine Tetracycline; test: MIC, dilution in liquid medium; assay type: cell-based
Description: as §1

[9] = tested on: Salmonella typhimurium 420; test: MIC, dilution in liquid medium; assay type: cell-based; conditions: Salmonella enterica, read-out: MIC
Description: as §1

[10] = tested on: Serratia Resistant Gentamycine 2 532; test: MIC, dilution in liquid medium; assay type: cell-based; conditions: read-out: MIC
Description: as §1

[11] = tested on: Staphylococcus aureus ATCC 6 538 Pen Sensitive; test: MIC, dilution in liquid medium; assay type: cell-based
Description: as §1

[12] = tested on: Staphylococcus aureus UC 1 128 Pen-resistant; test: MIC, dilution in liquid medium; assay type: cell-based
Description: as §1

[13] = tested on: Staphylococcus aureus exp.n°54 146; test: MIC, dilution in liquid medium; assay type: cell-based
Description: as §1

[14] = tested on: Streptococcus pyogenes A 561; test: MIC, dilution in liquid medium; assay type: cell-based
Description: as §1

Escherichia coli TO26 B6 = test: Experimental infection with Escherichia coli TO26 B6 in mice; assay type: in vivo; conditions: for No. of mice surviving 8th day: subcutaneous 1, 5 and 24 hours after infection, control 0/10; for Mortality after hours: subcutaneous, group of 10 mice
Description: The product of Example 1 was studied for its activity against an experimental infection of Escherichia coil in groups of 10 male mice weighing about 21.5 g. The mice received an intraperitoneal injection of 0.5 ml of a 24 hour old culture in a nutritive media of Escherichia Coli TO26 B6 of the Pasteur Institute diluted 1/5 with distilled water. The test product was administered subcutaneously 1 hour and 5 and 24 hours after the infection and the number of dead was determined after 8 days.

Proteus mirabilis A 235 = test: Experimental infection of Proteus mirabilis in mice; assay type: in vivo; conditions: for Mice surviving on 8th day: subcutaneous 1, 5 and 24 hours after infection, controls 0/10; for Mortality after hours: subcutaneous, group of 10 mice
Description: Groups of 10 mice with an average weight of 21.5 g received intraperitoneally 0.5 ml of a 24 hour old culture in oxoid bouillon of Proteus mirabilis A 235 diluted 1/10 with distilled water. The mice then received subcutaneously the compound of Example 1 one hour and 5 and 24 hours after the infection and the results are reported in the following Table.

Proteus Morganii A236 = test: Experimental infection of Proteus Morganii A236 in mice; assay type: in vivo; conditions: for Mice surviving on 8th day: cutaneously 1,5 and 24 hours after injection, controls 0/10; for Mortality after hours: cutaneously, group of 10 mice
Description: The activity of the product of Example 1 against an experimental infection of Proteus Morganii […] was determined in groups of 10 mice weighing an average of 20.5 g which were infected by intraperitoneal injection of 0.5 ml of a culture thereof in a medium with a pH of 7 diluted to one tenth.

[15] = tested on: Klebsiella Pneumonia No. 52,145; test: Experimental infection of Klebsiella Pneumoniae in mice; assay type: in vivo; conditions: for Mice surviving on 8th day: by injection 1,5 and 24 hours after infection, controls 0/10; for Mortality after hours: by injection, group of 10 mice
Description: The activity of the compound of Example 1 against an experimental infection of Klebsiella Pneumonia No. 52,145 was determined on groups of 10 mice having an average weight of 21 g by intraperitoneal injection of 0.5 ml of a culture thereof with a pH of 6 diluted to 1/1500.

## CC(=O)OCC1=C(C(=O)O)N2C(=O)C(NC(=O)/C(=N\OCCSC(=N)N)c3csc(N)n3)C2SC1 (stereo not drawn) [Example 1, Trifluoroacetate of the syn isomer of 3-acetoxymethyl-7-[2-(2-amino-4-thiazolyl)-2-(2-aminoiminomethylthio-ethoxyimino)acetamido]-ceph-3-eme-4-carboxylic acid]
[1]; ATCC6, 24 h
  MIC: 1 µg/mL
[1]; ATCC6, 48 h
  MIC: 1 µg/mL
Enterobacter cloacae 681; Enterobacter cloacae, 681, 24 h
  MIC: 2 µg/mL
Enterobacter cloacae 681; Enterobacter cloacae, 681, 48 h
  MIC: 2 µg/mL
[2]; 24 h
  MIC: 0.5 µg/mL
[2]; 48 h
  MIC: 0.5 µg/mL
[3]; ATCC11, 24 h
  MIC: 0.05 µg/mL
[3]; ATCC11, 48 h
  MIC: 0.05 µg/mL
[4]; ATCC9, 24 h
  MIC: 1 µg/mL
[4]; ATCC9, 48 h
  MIC: 1 µg/mL
[5]; 24 h
  MIC: 1 µg/mL
[5]; 48 h
  MIC: 2 µg/mL
[6]; EXP.52145, 24 h
  MIC: 0.5 µg/mL
[6]; EXP.52145, 48 h
  MIC: 0.5 µg/mL
[7]; 24 h
  MIC: 0.1 µg/mL
[7]; 48 h
  MIC: 0.1 µg/mL
Providencia Du 48; DU48, 24 h
  MIC: 2 µg/mL
Providencia Du 48; DU48, 48 h
  MIC: 3 µg/mL
[8]; 24 h
  MIC: 20 µg/mL
[8]; 48 h
  MIC: 20 µg/mL
[9]; 24 h
  MIC: 0.5 µg/mL
[9]; 48 h
  MIC: 0.5 µg/mL
[10]; 24 h
  MIC: 0.5 µg/mL
[10]; 48 h
  MIC: 0.5 µg/mL
[11]; ATCC6, 24 h
  MIC: 2 µg/mL
[11]; ATCC6, 48 h
  MIC: 2 µg/mL
[12]; UC1, 24 h
  MIC: 2 µg/mL
[12]; UC1, 48 h
  MIC: 3 µg/mL
[13]; 24 h
  MIC: 2 µg/mL
[13]; 48 h
  MIC: 2 µg/mL
[14]; A561, 24 h
  MIC: 0.02 µg/mL
[14]; A561, 48 h
  MIC: 0.02 µg/mL
Escherichia coli TO26 B6; dose 0.1 mg
  No. of mice surviving 8th day: 6/10
Escherichia coli TO26 B6; dose 0.1 mg, 21H30
  Mortality after hours: 1
Escherichia coli TO26 B6; dose 0.1 mg, 24 H
  Mortality after hours: 1
Escherichia coli TO26 B6; dose 0.1 mg, 28 H
  Mortality after hours: 1
Escherichia coli TO26 B6; dose 0.1 mg, 36 H
  Mortality after hours: 1
Escherichia coli TO26 B6; dose 0.25 mg
  No. of mice surviving 8th day: 10/10
Proteus mirabilis A 235; dose 0,1 mg
  Mice surviving on 8th day: 10/10
Proteus mirabilis A 235; dose 0,05 mg
  Mice surviving on 8th day: 10/10
Proteus mirabilis A 235; dose 0,5 mg
  Mice surviving on 8th day: 10/10
Proteus mirabilis A 235; dose 0,25 mg
  Mice surviving on 8th day: 10/10
Proteus mirabilis A 235; dose 0,025 mg
  Mice surviving on 8th day: 7/10
Proteus mirabilis A 235; dose 0,025 mg, 23H45
  Mortality after hours: 1
Proteus mirabilis A 235; dose 0,025 mg, 25 H
  Mortality after hours: 1
Proteus mirabilis A 235; dose 0,025 mg, 31 H
  Mortality after hours: 1
Proteus Morganii A236; dose 0,1 mg
  Mice surviving on 8th day: 10/10
Proteus Morganii A236; dose 0,05 mg
  Mice surviving on 8th day: 2/10
Proteus Morganii A236; dose 0,5 mg
  Mice surviving on 8th day: 10/10
Proteus Morganii A236; dose 0,05 mg, 4H
  Mortality after hours: 1
Proteus Morganii A236; dose 0,05 mg, 6H15
  Mortality after hours: 1
Proteus Morganii A236; dose 0,05 mg, 6H
  Mortality after hours: 2
Proteus Morganii A236; dose 0,05 mg, 21H10
  Mortality after hours: 3
Proteus Morganii A236; dose 0,05 mg, 45H20
  Mortality after hours: 1
Proteus Morganii A236; dose 0,25 mg
  Mice surviving on 8th day: 10/10
[15]; dose 0,1 mg
  Mice surviving on 8th day: 6/10
[15]; dose 0,1 mg, 4 J
  Mortality after hours: 1
[15]; dose 0,1 mg, 5 J
  Mortality after hours: 1
[15]; dose 0,1 mg, 6 J
  Mortality after hours: 1
[15]; dose 0,1 mg, 8 J
  Mortality after hours: 1
[15]; dose 0,5 mg
  Mice surviving on 8th day: 9/10
[15]; dose 0,5 mg, 6 J
  Mortality after hours: 1
[15]; dose 0,25 mg
  Mice surviving on 8th day: 8/10
[15]; dose 0,25 mg, 4 J
  Mortality after hours: 1
[15]; dose 0,25 mg, 6 J
  Mortality after hours: 1
[15]; dose 1 mg
  Mice surviving on 8th day: 10/10
[15]; dose 1,5 mg
  Mice surviving on 8th day: 10/10

— patent US4426519A, “7-(2-Amino-4-thiazolyl)-acetamido cephalosporanic acids” (Roussel Uclaf, priority 1979, dated 1984)
